The values that follow come from patent publication US8263040B2, “Metal chelates having a perfluorinated PEG radical, processes for their preparation, and their use” (Bayer Schering Pharma AG, priority 2006, dated 2012).

A short description of data set [1]: Plasma kinetics after intravenous administration in rats (ICP-AES, WinNonlin). Type of data set: in vivo. As to conditions: i.v., 50 μmol of total gadolinium/kg. On the procedure: After intravenous administration of 50 μmol of total gadolinium/kg of body weight of the substances from Examples 2c), 21 c) and 22 c) in rats (n=3), blood samples were taken at different points in time (up to 24 h p.i.) by means of a catheter in the common carotid artery, and the metal content was determined by means of atomic emission spectrometry (ICP-AES) and converted to plasma values by means of a conversion factor (0.625). The pharmacokinetic parameters (Table 4) were calculated from the plasma concentrations by means of special software (WinNonlin).

The subject of data set [2] is histamine. Put plainly: Release of histamine after single intravenous administration in rats (plasma histamine, ELISA). The format is in vivo. As to conditions: for Histamine, baseline: before contrast agent administration; for Histamine, 10 min p.i. / Histamine, 30 min p.i. / Histamine, 60 min p.i.: i.v. On the procedure:
After intravenous administration of the substances from Examples 2c) and 22 c) in rats (n=3), the release of histamine was determined at different points in time. For this, blood was taken from the carotid artery before and 10, 30 and 60 minutes after contrast agent administration, and the histamine contained in the plasma was determined by means of an ELISA system. The histamine values measured can be seen in Table 2. The histamine blank values in the conscious rats were in the normal range known from the literature.

Data set [3] relates to mice. Put plainly: Acute toxicity after single intravenous administration in mice (exploratory). The format is in vivo. As to conditions: injection rate 2 ml/min, observation period 7 days. The procedure:
After intravenous administration of the substances of Examples 2c), 21 c) and 22 c) in mice (n=3; injection rate: 2 ml/min), the acute systemic tolerability (LD50) was determined in an exploratory manner. In each case, a number of doses were investigated using an observation period of 7 days. The average acute toxicities to be expected were 2.5 mmol of Gd/kg of body weight for the substance from Example 2c) and >10.0 mmol of Gd/kg of body weight for the substances from Examples 21c) and 22 c).

Data set [4] can be described thus: Relaxivity: T1 and T2 relaxation times of water and plasma (bovine), NMR pulse spectrometer (Minispec PC 20). Type of data set: physicochemical. As to conditions: for Relaxivity R1 / Relaxivity R2: 40° C., 0.47 T. The procedure:
The T1 and T2 relaxation times of water and plasma (bovine) having increasing concentrations of the substance from Example 2c) contained therein were determined at 40° C. using an NMR pulse spectrometer (Minispec PC 20) at 0.47 T (Table 1).
From the R1 relaxivities in water at high and low concentrations, a critical micelle formation concentration (CMC) of 0.02 mmol of Gd/I can be determined.

Data set [5] concerns popliteal lymph nodes. Put plainly: MRT demonstration of lymph nodes after intravenous administration in rats. Type of data set: in vivo. As to conditions: i.v., 50 μmol of Gd/kg, 1.5 T, early points in time (up to 60 min p.i.). An excerpt: The figures show exemplary MR shots of popliteal lymph nodes at different points in time after intravenous administration of 50 μmol of Gd/kg of body weight of the substance from Example 2c) in FIG. 1, of the substance from Example 21 c) in FIG. 2, and of the substance from Example 22 c) in FIG. 3 in rats.

Data set [6] can be described thus: Excretion after intravenous administration in rats (ICP-AES). Type of data set: in vivo. As to conditions: i.v., 50 μmol of total gadolinium/kg; for Gd content, rest of body: 14 days after administration; for Gd content, faeces / Gd content, urine: up to 14 days after administration. The procedure:
After intravenous administration of 50 μmol of total gadolinium/kg of body weight of substances from Examples 2c), 21 c) and 22 c) in rats (n=3), the metal content was determined fractionally up to 14 days after administration by means of atomic emission spectrometry (ICP-AES) in the excretion medium urine and faeces, and in the body (rest of body) (Table 3).

The conditions of data set [7]: in vivo; cited from earlier work.
[8] abbreviates: plasma (bovine), Gd concentration 0.271-1.086 mmol/l.
Where [9] appears, read: water, Gd concentration 0.000-0.009 mmol/l.
Setting [10] is: water, Gd concentration 0.020-1.099 mmol/l.

In data set [1], “1,4,7-Tris(carboxylatomethyl)-10-[(3-aza-4-oxo-5-methyl-5-yl)-acid N-(1H,1H,2H,2H,4H,4H,-3,6,9,12-tetraoxaperfluorohexadecyl)-N-(2-methoxyethyl)amide]-1,4,7,10-tetraazacyclododecane, Gd complex [Example 2c]” showed a Vc of 0.05 ± 0.00 L/kg, a Vd ss of 0.08 ± 0.01 L/kg, a α-t½ of 18.7 ± 2.0 min and a β-t½ of 72 ± 12 min. In data set [2], the “Histamine, baseline” value is 3 ± 2 ng/mL; the “Histamine, 10 min p.i.” value worked out at 4 ± 4 ng/mL; the “Histamine, 30 min p.i.” value stood at 5 ± 3 ng/mL; the “Histamine, 60 min p.i.” value is 3 ± 2 ng/mL. Further, the “acute systemic tolerability (LD50)” value in data set [3] is 2.5 mmol of Gd/kg of body weight. The “critical micelle formation concentration (CMC)” value in data set [4] (from the R1 relaxivities in water at high and low concentrations) is 0.02 mmol of Gd/I. Moreover, the “protein bond (relaxivity in plasma greater than in water)” value in data set [4] (plasma (bovine) versus water) was “indicates a protein bond”. In data set [4] (setting [8]), the “Relaxivity R1” value stood at 26.0 ± 0.5 L/mmol/s and the “Relaxivity R2” value stood at 35.1 ± 0.3 L/mmol/s. In addition, in data set [4] (setting [9]), the “Relaxivity R1” value worked out at 5.3 ± 0.4 L/mmol/s and the “Relaxivity R2” value amounted to 5.3 ± 1.2 L/mmol/s. Further, in data set [4] (setting [10]), the “Relaxivity R1” value was 17.8 ± 0.1 L/mmol/s and the “Relaxivity R2” value is 16.3 ± 0.2 L/mmol/s. Also, the “signal in the functional lymph node tissue (T1-weighted MR shots)” value (“signal” for short) in data set [5] is on record as “strong signal increase”. Besides, in data set [6], the “Gd content, rest of body” value came to 0.2 ± 0.3 % dose; the “Gd content, faeces” value was found to be 92.9 ± 1.5 % dose; the “Gd content, urine” value stood at 0.8 ± 0.2 % dose.
In data set [1], “1,4,7-Tris(carboxylatomethyl)-10-[(3-aza-4-oxo-5-methyl-5-yl)acid N-(1H,1H,2H,2H,4H,4H,-3,6,9,12-tetraoxaperfluorohexadecyl)-N-{2-[2-(2-methoxyethoxy)ethoxy]-ethyl}amide]1,4,7,10-tetraazacyclododecane, Gd complex [Example 22c]” returned a Vc of 0.04 ± 0.00 L/kg, a Vd ss of 0.06 ± 0.00 L/kg, a α-t½ of 23.6 ± 0.6 min and a β-t½ of 108 ± 18 min. For the same substance, in data set [2], the “Histamine, baseline” value is 3 ± 1 ng/mL; the “Histamine, 10 min p.i.” value came to 7 ± 3 ng/mL; the “Histamine, 30 min p.i.” value was determined as 4 ± 1 ng/mL; the “Histamine, 60 min p.i.” value was determined as 4 ± 1 ng/mL. For the same substance, in data set [5], the “signal” value is “strong signal increase”. Besides, in data set [6], the “Gd content, rest of body” value is given as 0.0 ± 0.0 % dose; the “Gd content, faeces” value turned out to be 83.4 ± 2.6 % dose; the “Gd content, urine” value is 1.8 ± 0.1 % dose.
Regarding “1,4,7-Tris(carboxylatomethyl)-10-{(3-aza-4-oxo-5-methyl-5-yl)-acid-N-(1H,1H,2H,2H,4H,4H,-3,6,9,12-tetraoxaperfluorohexadecyl)-N-[2-(2-methoxyethoxy)ethyl]amide}-1,4,7,10-tetraazacyclododecane, Gd complex [Example 21c]”, in data set [1], the Vc was found to be 0.04 ± 0.00 L/kg, the Vd ss was 0.05 ± 0.00 L/kg, the α-t½ was found to be 28.4 ± 1.5 min and the β-t½ is 78 ± 12 min. Also, the “signal” value in data set [5] is listed as “strong signal increase”. Moreover, in data set [6], the “Gd content, rest of body” value was 0.0 ± 0.0 % dose; the “Gd content, faeces” value amounted to 84.9 ± 0.7 % dose; the “Gd content, urine” value is 3.8 ± 0.1 % dose.
On to Mn-TPPS, for which, in data set [7], the LD50 was 0.5 mmol/kg and the “dose at which an action commences” value is on record as 0.2 mmol/kg.

What is called LD50 is the dose at which mortality reaches 50%.
